In test [1] the target is T1, rat GPR14 (U-II receptor) (Rattus norvegicus, UniProt P49684).
T1 construct: expressed in transfected cells
T1 sequence (P49684 1-386): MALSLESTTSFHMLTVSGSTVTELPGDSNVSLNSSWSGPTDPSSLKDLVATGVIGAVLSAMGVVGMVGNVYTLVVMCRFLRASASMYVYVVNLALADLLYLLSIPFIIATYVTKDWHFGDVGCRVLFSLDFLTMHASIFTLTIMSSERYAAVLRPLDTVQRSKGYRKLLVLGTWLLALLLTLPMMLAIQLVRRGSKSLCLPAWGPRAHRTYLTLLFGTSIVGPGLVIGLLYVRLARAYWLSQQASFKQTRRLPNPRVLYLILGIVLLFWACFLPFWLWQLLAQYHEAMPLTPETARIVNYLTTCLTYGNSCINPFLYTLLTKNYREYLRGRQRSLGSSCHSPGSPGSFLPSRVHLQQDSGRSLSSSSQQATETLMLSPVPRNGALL
The test can be described thus: Rat UII Calcium Mobilization FLIPR Assay. Format: cell-based. Conditions: average value for the compound tested; read-out: Rat UII FLIPR Average IC50. In a few lines:
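CHO cells stably expressing rat U-II receptor, seeded 24 h before assay, were loaded with FLIPR calcium dye in HBSS/20 mM HEPES/0.1% BSA/2.5 mM probenecid, pH 7.4, for 1 h at 37° C. Calcium mobilization then read by FLIPR at 23° C.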
Background: Calcium flux is commonly read through the fluorescence of an indicator in the cells.

Test [2] addresses T2, endogenous human UII receptor (Homo sapiens, UniProt Q9UKP6).
T2 sequence (Q9UKP6 1-389): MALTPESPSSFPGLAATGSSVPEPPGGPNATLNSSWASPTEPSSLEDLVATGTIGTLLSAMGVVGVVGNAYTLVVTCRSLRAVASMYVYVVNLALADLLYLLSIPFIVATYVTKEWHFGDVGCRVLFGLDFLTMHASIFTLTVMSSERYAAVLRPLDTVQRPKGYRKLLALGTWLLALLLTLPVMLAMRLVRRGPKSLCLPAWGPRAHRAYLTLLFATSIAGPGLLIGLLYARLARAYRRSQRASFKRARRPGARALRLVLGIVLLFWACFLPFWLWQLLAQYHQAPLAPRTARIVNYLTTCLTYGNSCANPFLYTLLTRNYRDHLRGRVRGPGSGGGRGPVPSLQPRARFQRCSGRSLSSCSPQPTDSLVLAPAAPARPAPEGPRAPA
The test can be described thus: Human Radioligand Binding Assay ((^125I)-U-II binding to human skeletal muscle myoblasts).

The target of test [3] is T3, Human UII receptor, 6D9 human rhabdomyosarcoma cells (Homo sapiens, UniProt Q9UKP6).
T3 construct: 6D9: isolated by dilution subcloning of RMS13 cells, ATCC® Number: CRL-2061; host or cells: 6D9 human rhabdomyosarcoma cells (subclone of RMS13)
T3 sequence (Q9UKP6 1-389): T2 sequence (Q9UKP6 1-389)
The test can be described thus: Human UII Calcium Mobilization Assay. In kind it is cell-based. To be noted: average value, FLIPR TETRA, read-out: Human UII Ca^+ Mobilization Average IC50. On the procedure:
6D9 human rhabdomyosarcoma cells were seeded into tissue culture treated 384-well black-walled clear bottom plates (3712, Corning Incorporated, Corning, N.Y.) at 8,000 cells/well in 25 μL of culture medium, and maintained in an incubator (5% CO2 at 37° C.) for 22 hrs prior to the calcium mobilization assay. 25 μL of dye solution was added to the wells such that the final liquid volume before agonist/antagonist treatment was 50 μL for all assays. The cell plates were incubated at 37° C. for 45 minutes and the fluorescence intensity was measured on a Fluorometric Imaging Plate Reader (FLIPR^TETRA, Molecular Devices, Sunnyvale, Calif.).
Antagonist and agonist U-II were added at room temperature on the FLIPR^TETRA, and the fluorescence intensity before and after addition was measured over a period of 4 minutes. The dye incubation time and temperature as well as instrument setting was adjusted so the fluorescence intensity could be compared between plates on the same day. EC50 and IC50 were analyzed using GraphPad Prism 4 software (GraphPad Software Inc., San Diego, Calif.).
Materials and reagent Preparation: Human Rhabdomyosarcoma cells (6D9: isolated by dilution subcloning of RMS13 cells, ATCC® Number: CRL-2061, American Type Culture Collection ATCC, Manassas, Va.) was maintained in RPMI-1640 medium (30-2001, ATCC, Manassas, Va.) supplemented with 10% (v/v) Fetal Bovine Serum (SH30071.03, Hyclone, Logan, Utah).
Dye preparation: BD™ Calcium Assay Kit (80500-301, BD Biosciences, Rockville, Md.) was prepared according to the manufacture's instruction in 1× Hanks' balanced salt solution (HBSS, 21-023-CV, Mediatech, Inc. Herndon, Va.) containing 20 mM HEPES buffer (25-060-CI, Mediatech, Inc. Herndon, Va.). Final dye loading conditions included 1.25 mM probenecid (P36400, Invitrogen, Carlsbad, Calif.) and 0.01% FBS.
Urantide (PUT-3639-PI, Peptide International, Louisville, Ky.) was prepared in water at 5 mM. For assays, U-II agonist, U-II antagonist and urantide were diluted with HBSS/HEPES containing 0.01% FBS.
Test compounds were dissolved in DMSO at 10 mM concentration. The serial dilutions were carried out in HBSS/HEPES. The highest final DMSO concentration was at 0.1%.

Where only a bound is given, the exact number is not on record here.

This note sets out measurements from US8193191B2, “Urotensin II receptor antagonists” (Janssen Pharmaceutica N.V., priority 2006, dated 2012).

Regarding `COc1ccc(C(CCCNS(=O)(=O)c2c(Cl)nc3sccn23)N2C(=O)c3cccc(N4CCN([C@H](C)c5ccccc5)CC4)c3C2=O)cc1OC` (stereo partly drawn) [Cpd 93, 6-chloro-imidazo[2,1-b]thiazole-5-sulfonic acid (4-(3,4-dimethoxy-phenyl)-4-{1,3-dioxo-4-[4-(1R)-(1-phenyl-ethyl)-piperazin-1-yl]-1,3-dihydro-isoindol-2-yl}-butyl)-amide], the half-inhibitory concentration (IC50) (usually the point on the concentration scale where inhibition reaches its midpoint) was 180 nM in test [1] and > 3000 nM in test [3]. In addition, the affinity in test [2] corresponds to a Ki of 460 nM.
On to `COC(=O)c1sccc1S(=O)(=O)NCCCC(c1ccc(OC)c(OC)c1)N1C(=O)c2cccc(N3CCN([C@H](C)c4ccccc4)CC3)c2C1=O` (stereo partly drawn) [Cpd 94, 3-(4-(3,4-dimethoxy-phenyl)-4-{1,3-dioxo-4-[4-(1R)-(1-phenyl-ethyl)-piperazin-1-yl]-1,3-dihydro-isoindol-2-yl}-butylsulfamoyl)-thiophene-2-carboxylic acid methyl ester], for which the IC50 in test [1] is 65 nM; in test [3], 430 nM. For the same compound, in test [2], the inhibition constant Ki (usually a measure of affinity in units of concentration, obtained from inhibition or displacement) is 42 nM.
For the compound `COc1ccc(C(CCCNS(=O)(=O)c2ccc(-c3ccon3)s2)N2C(=O)c3cccc(N4CCN([C@H](C)c5ccccc5)CC4)c3C2=O)cc1OC` (stereo partly drawn) [Cpd 95, 5-isoxazol-3-yl-thiophene-2-sulfonic acid (4-(3,4-dimethoxy-phenyl)-4-{1,3-dioxo-4-[4-(1R)-(1-phenyl-ethyl)-piperazin-1-yl]-1,3-dihydro-isoindol-2-yl}-butyl)-amide], the figures for the concentration for half-maximal inhibition (IC50) in test [1] and in test [3] were 89 nM and 200 nM, respectively. The same compound displayed a Ki in test [2] of 110 nM.
As for `COc1ccc(C(CCCNS(=O)(=O)c2ccccc2)N2C(=O)c3cccc(N4CCN([C@H](C)c5ccccc5)CC4)c3C2=O)cc1OC` (stereo partly drawn) [Cpd 96, N-(4-(3,4-dimethoxy-phenyl)-4-{1,3-dioxo-4-[4-(1R)-(1-phenyl-ethyl)-piperazin-1-yl]-1,3-dihydro-isoindol-2-yl}-butyl)-benzenesulfonamide], the IC50 is 97 nM in test [1] and 760 nM in test [3]. The Ki in test [2] came to 97 nM.
On to `COc1ccc(C(CCCNS(=O)(=O)c2sc(NC(C)=O)nc2C)N2C(=O)c3cccc(N4CCN([C@H](C)c5ccccc5)CC4)c3C2=O)cc1OC` (stereo partly drawn) [Cpd 97, N-[5-(4-(3,4-dimethoxy-phenyl)-4-{1,3-dioxo-4-[4-(1R)-(1-phenyl-ethyl)-piperazin-1-yl]-1,3-dihydro-isoindol-2-yl}-butylsulfamoyl)-4-methyl-thiazol-2-yl]-acetamide], for which the values for the 50% inhibitory concentration (IC50) in test [1] and in test [3] were 63 nM and 700 nM, respectively. This compound also had a Ki in test [2] of 180 nM.
Consider `COc1ccc(C(CCCNS(=O)(=O)c2cn(C)cn2)N2C(=O)c3cccc(N4CCN([C@H](C)c5ccccc5)CC4)c3C2=O)cc1OC` (stereo partly drawn) [Cpd 98, 1-methyl-1H-imidazole-4-sulfonic acid (4-(3,4-dimethoxy-phenyl)-4-{1,3-dioxo-4-[4-(1R)-(1-phenyl-ethyl)-piperazin-1-yl]-1,3-dihydro-isoindol-2-yl}-butyl)-amide], for which the values for the IC50 in test [1] and in test [3] were 18 nM and 350 nM, respectively. The compound further displayed a Ki in test [2] of 42 nM.
In the case of `COc1ccc(C(CCCNS(=O)(=O)c2cc(C)oc2C)N2C(=O)c3cccc(N4CCN([C@H](C)c5ccccc5)CC4)c3C2=O)cc1OC` (stereo partly drawn) [Cpd 99, 2,5-dimethyl-furan-3-sulfonic acid (4-(3,4-dimethoxy-phenyl)-4-{1,3-dioxo-4-[4-(1R)-(1-phenyl-ethyl)-piperazin-1-yl]-1,3-dihydro-isoindol-2-yl}-butyl)-amide], the IC50 was 170 nM in test [1] and 2700 nM in test [3]. In test [2], this compound had a Ki of 620 nM.
Turning to `COc1ccc(C(CCCNS(=O)(=O)c2c(C)nn(C)c2Cl)N2C(=O)c3cccc(N4CCN([C@H](C)c5ccccc5)CC4)c3C2=O)cc1OC` (stereo partly drawn) [Cpd 101, 5-chloro-1,3-dimethyl-1H-pyrazole-4-sulfonic acid (4-(3,4-dimethoxy-phenyl)-4-{1,3-dioxo-4-[4-(1R)-(1-phenyl-ethyl)-piperazin-1-yl]-1,3-dihydro-isoindol-2-yl}-butyl)-amide], the IC50 in test [1] is 30 nM; in test [3], 300 nM. The compound further returned a Ki in test [2] of 120 nM.
